Test results as given in ChEMBL document CHEMBL6092222 (J Med Chem, 2024).
Values after ≈ are worked out from the molar mass of the structure shown.

Key:
[1] = Lipophilicity, logP of compound by HPLC analysis; type: physicochemical
[2] = Dissociation constant, pKa of compound; type: physicochemical
[3] = Solubility of compound at pH 1 by reversed-phase UPLC analysis; type: physicochemical; details: buffer
[4] = Solubility of compound at pH 2 by reversed-phase UPLC analysis; type: physicochemical; details: buffer
[5] = Solubility of compound at pH 3 by reversed-phase UPLC analysis; type: physicochemical; details: buffer
[6] = Solubility of compound at pH 4 by reversed-phase UPLC analysis; type: physicochemical; details: buffer
[7] = Solubility of compound at pH 5 by reversed-phase UPLC analysis; type: physicochemical; details: buffer
[8] = Solubility of compound at pH 6.5 by reversed-phase UPLC analysis; type: physicochemical; details: buffer
[9] = Solubility of compound at pH 7.4 by reversed-phase UPLC analysis; type: physicochemical; details: buffer
[10] = Solubility of compound in FeSSIF at pH 5 by reversed-phase UPLC analysis; type: physicochemical
[11] = Solubility of compound in FaSSIF at pH 6.5 by reversed-phase UPLC analysis; type: physicochemical
[12] = Apparent permeability across apical to basal side in human Caco-2 cells; type: ADME, cell-based
[13] = Efflux ratio of apparent permeability across basal to apical side over apical to basal side in human Caco-2 cells; type: ADME, cell-based
[14] = Permeability of compound by PAMPA; type: ADME; details: read-out: permeability
[15] = Protein binding in human plasma assessed as free fraction; type: ADME, cell-free
[16] = Protein binding in rat plasma assessed as free fraction; type: ADME, cell-free
[17] = Protein binding in monkey plasma assessed as free fraction; type: ADME, cell-free, Macaca mulatta; details: rhesus monkey
[18] = Inhibition of STAT5 phosphorylation in IFN-gamma-treated human whole blood; type: tissue-based
[19] = Oral bioavailability in mouse; type: ADME, organism-based; details: in vivo
[20] = Oral bioavailability in rat; type: ADME, organism-based; details: in vivo
[21] = Oral bioavailability in monkey; type: ADME, organism-based, Macaca mulatta; details: rhesus monkey, in vivo
[22] = Oral bioavailability in mouse at 50 mg/kg administered as suspension; type: ADME, organism-based; details: in vivo
[23] = Cmax in Sprague-Dawley rat at 10 mg/kg, po measured for 24 hrs by UPLC-MS/MS analysis; type: ADME, organism-based; details: in vivo
[24] = Cmax in Pentagastrine-pretreated Sprague-Dawley rat at 10 mg/kg, po measured for 24 hrs by UPLC-MS/MS analysis; type: ADME, organism-based; details: in vivo
[25] = Cmax in Famotidine-pretreated Sprague-Dawley rat at 10 mg/kg, po measured for 24 hrs by UPLC-MS/MS analysis; type: ADME, organism-based; details: in vivo
[26] = Tmax in Sprague-Dawley rat at 10 mg/kg, po measured for 24 hrs by UPLC-MS/MS analysis; type: ADME, organism-based; details: in vivo
[27] = Tmax in Pentagastrine-pretreated Sprague-Dawley rat at 10 mg/kg, po measured for 24 hrs by UPLC-MS/MS analysis; type: ADME, organism-based; details: in vivo
[28] = Tmax in Famotidine-pretreated Sprague-Dawley rat at 10 mg/kg, po measured for 24 hrs by UPLC-MS/MS analysis; type: ADME, organism-based; details: in vivo
[29] = AUC (total) in Sprague-Dawley rat at 10 mg/kg, po measured for 24 hrs by UPLC-MS/MS analysis; type: ADME, organism-based; details: in vivo
[30] = AUC (total) in Pentagastrine-pretreated Sprague-Dawley rat at 10 mg/kg, po measured for 24 hrs by UPLC-MS/MS analysis; type: ADME, organism-based; details: in vivo
[31] = AUC (total) in Famotidine-pretreated Sprague-Dawley rat at 10 mg/kg, po measured for 24 hrs by UPLC-MS/MS analysis; type: ADME, organism-based; details: in vivo
[32] = Oral bioavailability in Sprague-Dawley rat at 10 mg/kg measured for 24 hrs by UPLC-MS/MS analysis; type: ADME, organism-based; details: in vivo
[33] = Oral bioavailability in Pentagastrine-pretreated Sprague-Dawley rat at 10 mg/kg measured for 24 hrs by UPLC-MS/MS analysis; type: ADME, organism-based; details: in vivo
[34] = Oral bioavailability in Famotidine-pretreated Sprague-Dawley rat at 10 mg/kg measured for 24 hrs by UPLC-MS/MS analysis; type: ADME, organism-based; details: in vivo
[35] = physchem; details: aqueous buffer, pH 1
Description: Solubility of compound in aqueous buffer at pH 1 at 25 degreeC by reversed phase-HPLC analysis

[36] = physchem; details: aqueous buffer, pH 4
Description: Solubility of compound in aqueous buffer at pH 4 at 25 degreeC by reversed phase-HPLC analysis

[37] = physchem; details: aqueous buffer, pH 6.5
Description: Solubility of compound in aqueous buffer at pH 6.5 at 25 degreeC by reversed phase-HPLC analysis

[38] = Chemical stability of compound in 0.1 M HCl at pH 1 at 37 degreeC assessed as half life measured for 24 hrs by reversed phase-HPLC analysis; type: physicochemical
[39] = Chemical stability of compound in acetate buffer at pH 4 at 37 degreeC assessed as half life measured for 24 hrs by reversed phase-HPLC analysis; type: physicochemical
[40] = Chemical stability of compound in phosphate buffer at pH 6.5 at 37 degreeC assessed as half life measured for 24 hrs by reversed phase-HPLC analysis; type: physicochemical
[41] = Prodrug conversion in Pentagastrine-pretreated Sprague-Dawley rat assessed as Cmax of 6-(cyclopropanecarboxamido)-4-((2-methoxy-3-(2-methyl-2H-tetrazol-5-yl)phenyl)amino)-N-(methyl-d3)nicotinamide metabolite at 10 mg/kg, po measured for 24 hrs by UPLC-MS/MS analysis; type: ADME, organism-based; details: in vivo
[42] = Prodrug conversion in Famotidine-pretreated Sprague-Dawley rat assessed as Cmax of 6-(cyclopropanecarboxamido)-4-((2-methoxy-3-(2-methyl-2H-tetrazol-5-yl)phenyl)amino)-N-(methyl-d3)nicotinamide metabolite at 10 mg/kg, po measured for 24 hrs by UPLC-MS/MS analysis; type: ADME, organism-based; details: in vivo
[43] = Prodrug conversion in Pentagastrine-pretreated Sprague-Dawley rat assessed as Tmax of 6-(cyclopropanecarboxamido)-4-((2-methoxy-3-(2-methyl-2H-tetrazol-5-yl)phenyl)amino)-N-(methyl-d3)nicotinamide metabolite at 10 mg/kg, po measured for 24 hrs by UPLC-MS/MS analysis; type: ADME, organism-based; details: in vivo
[44] = Prodrug conversion in Famotidine-pretreated Sprague-Dawley rat assessed as Tmax of 6-(cyclopropanecarboxamido)-4-((2-methoxy-3-(2-methyl-2H-tetrazol-5-yl)phenyl)amino)-N-(methyl-d3)nicotinamide metabolite at 10 mg/kg, po measured for 24 hrs by UPLC-MS/MS analysis; type: ADME, organism-based; details: in vivo
[45] = Prodrug conversion in Pentagastrine-pretreated Sprague-Dawley rat assessed as AUC (total) of 6-(cyclopropanecarboxamido)-4-((2-methoxy-3-(2-methyl-2H-tetrazol-5-yl)phenyl)amino)-N-(methyl-d3)nicotinamide metabolite at 10 mg/kg, po measured for 24 hrs by UPLC-MS/MS analysis; type: ADME, organism-based; details: in vivo
[46] = Prodrug conversion in Famotidine-pretreated Sprague-Dawley rat assessed as AUC (total) of 6-(cyclopropanecarboxamido)-4-((2-methoxy-3-(2-methyl-2H-tetrazol-5-yl)phenyl)amino)-N-(methyl-d3)nicotinamide metabolite at 10 mg/kg, po measured for 24 hrs by UPLC-MS/MS analysis; type: ADME, organism-based; details: in vivo

SMILES: [2H]C([2H])([2H])NC(=O)c1cnc(NC(=O)C2CC2)cc1Nc1cccc(-c2nnn(C)n2)c1OC
- logP [1]: 2.7
- pKa [2]: 4.8
- solubility [3]: 2020 µg/mL (≈ 4750 µM)
- solubility [4]: 1680 µg/mL (≈ 3950 µM)
- solubility [5]: 17 µg/mL (≈ 40 µM)
- solubility [6]: 5 µg/mL (≈ 11.8 µM)
- solubility [7]: < 1 µg/mL
- solubility [8]: < 1 µg/mL
- solubility [9]: < 1 µg/mL
- solubility [10]: 57 µg/mL (≈ 134 µM)
- solubility [11]: 8 µg/mL (≈ 18.8 µM)
- Papp A→B [12]: 6.7 ×10⁻⁶ cm/s
- efflux ratio [13]: 8.2
- Papp [14]: ~60 ×10⁻⁶ cm/s
- fraction unbound [15]: 0.1
- fraction unbound [16]: 0.07
- fraction unbound [17]: 0.08
- IC50 [18]: 23 nM
- bioavailability [19]: 100%
- bioavailability [20]: 50%
- bioavailability [21]: 100%
- bioavailability [22]: 63%
- Cmax [23]: 4.8 µM
- Cmax [24]: 8.6 µM
- Cmax [25]: 770 nM
- Tmax [26]: 1.1 h
- Tmax [27]: 0.9 h
- Tmax [28]: 2.5 h
- AUC at 24 h [29]: 18.4 µM·h
- AUC at 24 h [30]: 46 µM·h
- AUC at 24 h [31]: 7.8 µM·h
- bioavailability [32]: 36%
- bioavailability [33]: 91%
- bioavailability [34]: 15.4%
- solubility [35]: 2020 µg/mL (≈ 4750 µM)
- solubility [36]: 5 µg/mL (≈ 11.8 µM)
- solubility [37]: 1 µg/mL (≈ 2.35 µM)

SMILES: [2H]C([2H])([2H])NC(=O)c1cn(COC(=O)c2ccc(OP(=O)(O)O)c(OC)c2)/c(=N/C(=O)C2CC2)cc1Nc1cccc(-c2nnn(C)n2)c1OC
- half-life [38]: > 20.8 days
- half-life [39]: 8.96 days
- half-life [40]: 3.5 days
- solubility [35]: < 1 µg/mL
- solubility [36]: 58 µg/mL (≈ 84.6 µM)
- solubility [37]: 1000 µg/mL (≈ 1460 µM)

SMILES: [2H]C([2H])([2H])NC(=O)c1cn(COP(=O)([O-])[O-])/c(=N/C(=O)C2CC2)cc1Nc1cccc(-c2nnn(C)n2)c1OC.[Na+].[Na+]
- half-life [38]: > 20.8 days
- half-life [39]: 15.7 days
- half-life [40]: 7.38 days
- Cmax [41]: 11.6 µM
- Cmax [42]: 8.1 µM
- Tmax [43]: 2.1 h
- Tmax [44]: 2.5 h
- AUC [45]: 79 µM·h
- AUC [46]: 58 µM·h
- solubility [35]: 10 µg/mL
- solubility [36]: 1 µg/mL
- solubility [37]: 1470 µg/mL

SMILES: NC(CO)(CO)CO.[2H]C([2H])([2H])NC(=O)c1cn(COP(=O)(O)O)/c(=N/C(=O)C2CC2)cc1Nc1cccc(-c2nnn(C)n2)c1OC
- solubility [35]: 1 µg/mL
- solubility [36]: 2 µg/mL
- solubility [37]: 141 µg/mL

SMILES: Cl.[2H]C([2H])([2H])NC(=O)c1cnc(NC(=O)C2CC2)cc1Nc1cccc(-c2nnn(C)n2)c1OC
- Cmax [24]: 7.1 µM
- Cmax [25]: 800 nM
- Tmax [27]: 5.5 h
- Tmax [28]: 4 h
- AUC at 24 h [30]: 53.4 µM·h
- AUC at 24 h [31]: 5.5 µM·h

SMILES: [2H]C([2H])([2H])NC(=O)c1cn(COC(=O)c2ccc(COP(=O)(O)O)cc2)/c(=N/C(=O)C2CC2)cc1Nc1cccc(-c2nnn(C)n2)c1OC
- half-life [38]: 13.9 days
- half-life [39]: 13.9 days
- half-life [40]: 5.42 days
- solubility [35]: 1 µg/mL (≈ 1.49 µM)
- solubility [37]: 1 µg/mL (≈ 1.49 µM)

SMILES: [2H]C([2H])([2H])N(COP(=O)([O-])[O-])C(=O)c1cnc(NC(=O)C2CC2)cc1Nc1cccc(-c2nnn(C)n2)c1OC.[Na+].[Na+]
- half-life [39]: 0.0292 days
- half-life [40]: 2.99 days
- solubility [37]: 2500 µg/mL

SMILES: NCCCC[C@H](N)C(=O)O.[2H]C([2H])([2H])NC(=O)c1cn(COP(=O)(O)O)/c(=N/C(=O)C2CC2)cc1Nc1cccc(-c2nnn(C)n2)c1OC
- solubility [35]: 4 µg/mL
- solubility [36]: 9 µg/mL
- solubility [37]: 308 µg/mL

SMILES: CNCC(=O)OCc1cccnc1N(C)C(=O)OCn1cc(C(=O)NC)c(Nc2cccc(-c3nnn(C)n3)c2OC)c/c1=N\C(=O)C1CC1.Cl
- half-life [38]: 13.9 days
- half-life [39]: 3 days
- half-life [40]: 0.238 days
- solubility [35]: 650 µg/mL
- solubility [36]: 580 µg/mL

SMILES: [2H]C([2H])([2H])NC(=O)c1cn(COC(=O)CC(C)(C)c2c(C)cc(C)cc2OP(=O)(O)O)/c(=N/C(=O)C2CC2)cc1Nc1cccc(-c2nnn(C)n2)c1OC
- half-life [38]: 2.67 days
- half-life [39]: 11.4 days
- half-life [40]: 0.321 days
- solubility [35]: 22 µg/mL (≈ 29.7 µM)
- solubility [36]: 44 µg/mL (≈ 59.5 µM)
